# From ChEMBL document CHEMBL4619775, “2-Arylbenzo[d]oxazole Phosphinate Esters as Second-Generation Modulators of Utrophin for the Treatment of Duchenne Muscular Dystrophy” (J Med Chem, 2020)
# Active and inactive are the calls of the source. The rule behind the calls is not given here.
# Experiments:
# [1] = Intrinsic clearance in mouse hepatocytes assessed per 10^6 cells
# [2] = Stability in mouse hepatocytes assessed as half life
# [3] = Apparent permeability from apical to basolateral side in human Caco2; conditions: Caco-2
# [4] = Apparent permeability from basolateral to apical side in human Caco2; conditions: Caco-2
# [5] = Solubility of compound by turbidimetric assay
# [6] = Plasma protein binding in mouse
# [7] = Plasma protein binding in human
# [8] = Microsomal stability in mouse liver microsomes assessed as half life
# [9] = Microsomal stability in human liver microsomes assessed as half life
# [10] = Intrinsic clearance in mouse liver microsomes
# [11] = Intrinsic clearance in human liver microsomes
# [12] = Drug level in rat treated with methyl ethyl(2-(3-(trifluoromethyl)phenyl)benzo[d]oxazol-5-yl)phosphinate assessed as compound formation; format: ADME; conditions: in vivo
# [13] = Aqueous kinetic solubility of the compound; conditions: buffer
# [14] = species on record: Mus musculus; assay: Upregulation of utrophin expression in dystrophin-deficient mouse myoblasts at 10 uM after 72 hrs by Western blot analysis; format: functional
# [15] = Volume of distribution in mdx mouse at 1 mg/kg, iv; conditions: in vivo
# [16] = tested on: Mus musculus; assay: Protection against DMD in mdx C57BL/10 mouse assessed as force drop in extensor digitorum longus muscle at 30 mg/kg, po qd for 5 weeks measured post-last dose (reference value: 44.9%); format: functional
# [17] = tested on: Mus musculus; assay: Protection against stretch-induced damage in mdx C57BL/10 mouse assessed as improvement in muscle resistance at 30 mg/kg, po qd for 5 weeks; format: functional
# [18] = Half life in mdx mouse at 5 mg/kg, po after 1 day; conditions: in vivo, t1/2
# [19] = Drug metabolism in mouse hepatocytes assessed as interconversion to opposite enantiomeric form after 60 mins; conditions: 1 h
# [20] = Drug metabolism in human hepatocytes assessed as interconversion to opposite enantiomeric form after 60 mins; conditions: 1 h
# [21] = mouse, in vivo, po, 5 mg/kg, 24 h
# [22] = mouse, in vivo, po, 5 mg/kg, 168 h
# [23] = mouse, in vivo, iv, 1 mg/kg
# [24] = mouse, in vivo, po, 5 mg/kg, 24 h; remark: listed apart in the source
# [25] = mouse, in vivo, po, 5 mg/kg, 168 h; remark: listed apart in the source
# [26] = mouse, in vivo, po, 5 mg/kg, 24 h; remark: listed apart in the source
# [27] = in vivo; conditions: mdx, mouse, iv, 1 mg/kg
# [28] = in vivo; conditions: mdx, mouse, po, 5 mg/kg, F
# [29] = species on record: Mus musculus; assay: Upregulation of utrophin expression in dystrophin-deficient mouse myoblasts after 72 hrs by Western blot analysis; format: functional
# [30] = molecular target: 5-hydroxytryptamine receptor 2B (Homo sapiens, UniProt P41595); assay: Antagonist activity at human Gq-coupled 5HT2B receptor expressed in HEK293 cells assessed as inhibition of serotonin-induced calcium mobilization by calcium-sensitive dye based FLIPR assay; format: functional, cell-based
# Chain of 5-hydroxytryptamine receptor 2B (P41595 whole entry): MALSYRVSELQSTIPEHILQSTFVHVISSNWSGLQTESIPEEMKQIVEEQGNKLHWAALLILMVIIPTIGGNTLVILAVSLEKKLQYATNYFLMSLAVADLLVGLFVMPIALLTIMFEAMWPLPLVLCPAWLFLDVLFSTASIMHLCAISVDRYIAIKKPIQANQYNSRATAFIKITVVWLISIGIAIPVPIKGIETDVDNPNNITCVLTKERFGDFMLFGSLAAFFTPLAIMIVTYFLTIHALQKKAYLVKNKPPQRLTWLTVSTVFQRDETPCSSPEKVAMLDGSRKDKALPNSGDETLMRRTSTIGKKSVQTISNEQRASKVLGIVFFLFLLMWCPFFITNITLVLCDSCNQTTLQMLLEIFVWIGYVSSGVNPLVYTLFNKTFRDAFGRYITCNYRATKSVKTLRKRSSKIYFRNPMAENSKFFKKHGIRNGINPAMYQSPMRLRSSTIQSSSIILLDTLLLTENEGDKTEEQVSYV
# [31] = mouse, in vivo, po, 5 mg/kg, 168 h; remark: listed apart in the source
# [32] = Stability in human hepatocytes assessed as half life after 60 mins
# [33] = Drug metabolism in mouse hepatocytes assessed as compound racemization after 60 mins; conditions: 1 h
# [34] = Drug metabolism in human hepatocytes assessed as compound racemization after 60 mins; conditions: 1 h
# [35] = mouse, in vivo, iv, 1 mg/kg; remark: listed apart in the source
# [36] = Intrinsic clearance in mouse hepatocytes after 60 mins; conditions: 1 h
# [37] = Intrinsic clearance in human hepatocytes after 60 mins; conditions: 1 h
# [38] = Stability in mouse hepatocytes assessed as half life after 60 mins
structure (smiles),measurement,setting,value
CCP(=O)(OC1CCC1)c1ccc2oc(-c3cccc(C(F)(F)F)c3)nc2c1 (configuration not stated),hepatocyte CLint,[1],32.8 µL/min/1e6 cells
same,half-life,[2],0.35 h
same,Papp A→B,[3],6.38 ×10⁻⁶ cm/s
same,Papp B→A,[4],3.98 ×10⁻⁶ cm/s
O=S1(=O)CCCN1c1ccc2oc(-c3ccc4ccccc4c3)nc2c1,solubility kinetic,[5],3 to 10 µM
COP(=O)(c1ccc2nc(-c3ccc(F)cc3)oc2c1)C(C)C (configuration not stated),solubility kinetic,[5],> 100 µM
same,fraction unbound,[6],0.17
same,fraction unbound,[7],0.04
same,half-life,[8]; liver microsomes,0.45 h
same,half-life,[9]; liver microsomes,> 17.1 h
CC(C)C(=O)Nc1ccc2oc(-c3ccc4ccccc4c3)nc2c1,solubility kinetic,[5],1 to 3 µM
CC(=O)Nc1ccc2oc(-c3ccc4ccccc4c3)nc2c1,solubility kinetic,[5],3 to 10 µM
CCOP(=O)(CC)c1ccc2oc(-c3ccc(F)cc3)nc2c1 (configuration not stated),solubility kinetic,[5],> 100 µM
same,fraction unbound,[6],0.16
same,fraction unbound,[7],0.08
same,microsomal CLint,[10]; liver microsomes,39.1 µL/min/mg
same,half-life,[8]; liver microsomes,0.6 h
same,microsomal CLint,[11]; liver microsomes,2.41 µL/min/mg
same,half-life,[9]; liver microsomes,9.58 h
CCP(=O)(O)c1ccc2oc(-c3cccc(C(F)(F)F)c3)nc2c1,fraction unbound,[7],0.01
same,Drug uptake,[12],Active
same,hepatocyte CLint,[1],< 2.89 µL/min/1e6 cells
same,half-life,[2],4 h
same,solubility kinetic,[13],337 µM
CCP(=O)(OC1CC1)c1ccc2oc(-c3cccc(C(F)(F)F)c3)nc2c1 (configuration not stated),hepatocyte CLint,[1],8.65 µL/min/1e6 cells
same,half-life,[2],1.33 h
same,Papp A→B,[3],10.6 ×10⁻⁶ cm/s
same,Papp B→A,[4],5.75 ×10⁻⁶ cm/s
CCP(=O)(OC1CC1)c1ccc2nc(-c3cccc(C(F)(F)F)c3)oc2c1 (configuration not stated),fraction unbound,[6],0.01
same,hepatocyte CLint,[1],8.92 µL/min/1e6 cells
same,half-life,[2],1.3 h
same,solubility kinetic,[13],652 µM
CCP(=O)(OC)c1ccc2nc(-c3cnc4ccccc4c3)oc2c1 (configuration not stated),solubility kinetic,[5],> 100 µM
same,fraction unbound,[6],0.23
same,fraction unbound,[7],0.1
same,half-life,[8]; liver microsomes,> 73.3 h
CCP(=O)(OC)c1ccc2nc(-c3ccc(F)cc3)oc2c1 (configuration not stated),Activity,[14],inactive
CCP(=O)(OC)c1ccc2oc(-c3ccc(F)cc3)nc2c1 (racemic) [listing 1 of 2 here],solubility kinetic,[5],> 100 µM
same,PPB,[6],75%
same,fraction unbound,[7]; PPB,0.12
same,half-life,[8]; microsomes,1.43 h
same,half-life,[9]; microsomes,6.38 h
same,Vd,"[15]; mdx, Vd",1.46 L/kg
same,Activity,[16],31.8%
same,Activity,[17],29%
same,half-life at 24 h,[18],2.25 h
same,Drug metabolism,[19],< 1%
same,Drug metabolism,[20],< 1%
same,Cmax,[21],734 ng/mL
same,Cmax,[22],566 ng/mL
same,AUC,[23],431 ng·h/mL
same,AUC,[24],1660 ng·h/mL
same,AUC,[25],1160 ng·h/mL
same,F,[26],77.2%
same,Cmax,[27],562 ng/mL
same,bioavailability at 168 h,[28],53.7%
CCP(=O)(OC)c1ccc2oc(-c3ccc(F)cc3)nc2c1 (racemic) [listing 2 of 2 here],Activity,[29],Dose-dependent effect
CCP(=O)(OC)c1ccc2oc(-c3cccc(C(F)(F)F)c3)nc2c1 (racemic),Activity,[29],Dose-dependent effect
"CCP(=O)(OC)c1ccc2oc(-c3ccc(F)cc3)nc2c1 (single isomer, unassigned; (+))",EC50,[30],9.3 µM
same,PPB,[6],80%
same,Activity,[16],29.4%
same,Activity,[17],35%
same,Cmax,[21],542 ng/mL
same,Cmax,[22],736 ng/mL
same,AUC,[23],510 ng·h/mL
same,AUC,[24],1570 ng·h/mL
same,AUC,[25],1620 ng·h/mL
same,F,[31],63.7%
same,F,[26],61.6%
"CCP(=O)(OC)c1ccc2oc(-c3ccc(F)cc3)nc2c1 (single isomer, unassigned; (-))",EC50,[30],50 µM
same,PPB,[6],77%
same,PPB,[7],85%
same,half-life at 1 h,[32],> 7.67 h
same,Vd,[15],1.58 L/kg
same,Activity,[16],44.4%
same,Drug metabolism,[33],Metabolite_Notdetected
same,Drug metabolism,[34],Metabolite_Notdetected
same,Cmax,[35],477 ng/mL
same,Cmax,[21],352 ng/mL
same,Cmax,[22],299 ng/mL
same,AUC,[23],226 ng·h/mL
same,AUC,[24],444 ng·h/mL
same,AUC,[25],513 ng·h/mL
same,F,[31],45.4%
same,F,[26],39.4%
CCS(=O)(=O)c1ccc2oc(-c3ccc4ccccc4c3)nc2c1 [EZUTROMID],solubility kinetic,[5],3 to 10 µM
same,fraction unbound,[6],< 0.01
same,microsomal CLint,[10]; microsomes,21 µL/min/mg
same,half-life,[8]; microsomes,1.1 h
same,microsomal CLint,[11]; microsomes,14.4 µL/min/mg
same,half-life,[9]; microsomes,1.6 h
same,CLH,[36],54 µL/min
same,CLH,[37],31 µL/min
same,half-life at 1 h,[38],0.433 h
same,half-life at 1 h,[32],0.75 h
same,Drug metabolism,[33],Metabolite_Notdetected
same,Drug metabolism,[34],Metabolite_Notdetected
